The results in this text go back to ChEMBL document CHEMBL1955864, “N-1 and C-3 substituted indole Schiff bases as selective COX-2 inhibitors: synthesis and biological evaluation” (Bioorg Med Chem Lett, 2012).

A value given as a limit tells only on which side of the number the result lay.

The assay concerns the target T1, Prostaglandin G/H synthase 1 (Ovis aries, UniProt P05979).
T1 sequence (P05979 whole entry): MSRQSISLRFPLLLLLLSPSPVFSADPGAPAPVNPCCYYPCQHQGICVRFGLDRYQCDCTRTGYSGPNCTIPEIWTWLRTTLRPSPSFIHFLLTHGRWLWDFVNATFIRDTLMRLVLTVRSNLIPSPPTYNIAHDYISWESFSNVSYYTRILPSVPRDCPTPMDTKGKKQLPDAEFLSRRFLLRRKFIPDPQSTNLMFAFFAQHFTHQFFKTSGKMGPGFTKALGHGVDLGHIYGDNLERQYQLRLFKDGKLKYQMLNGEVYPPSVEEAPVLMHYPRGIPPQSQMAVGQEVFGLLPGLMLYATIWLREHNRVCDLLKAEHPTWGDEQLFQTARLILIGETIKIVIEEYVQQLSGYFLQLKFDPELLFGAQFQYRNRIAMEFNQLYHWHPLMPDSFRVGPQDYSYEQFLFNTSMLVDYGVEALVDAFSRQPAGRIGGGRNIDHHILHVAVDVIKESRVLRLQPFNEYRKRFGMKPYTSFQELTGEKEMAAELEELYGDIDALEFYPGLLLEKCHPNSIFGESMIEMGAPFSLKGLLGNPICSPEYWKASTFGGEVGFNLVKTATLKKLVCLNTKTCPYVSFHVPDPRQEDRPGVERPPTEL
Description: Inhibition of ovine COX-1 by enzyme immuno assay.
By IC50 is commonly meant the concentration that inhibits the measured activity by half. A low value points to greater potency. In turn, `FC(F)(F)c1ccc(/N=C/c2cn(Cc3ccccc3)c3ccccc23)cc1` had an IC50 of 95.5 µM.

As for `O=C(c1ccccc1)n1cc(/C=N/c2ccc(C(F)(F)F)cc2)c2ccccc21`, the IC50 was > 100 µM. The result for `Fc1ccc(/N=C/c2cn(Cc3ccccc3)c3ccccc23)cc1` reads 91.1 µM; that for `Cc1ccc(/N=C/c2cn(C(=O)c3ccccc3)c3ccccc23)cc1`, 80.2 µM; that for `O=C(c1ccccc1)n1cc(/C=N/c2ccc(Cl)cc2)c2ccccc21`, 86.1 µM. The result for `Fc1ccc(/N=C/c2c[nH]c3ccccc23)cc1` reads 68.4 µM; that for `Cc1ccc(/N=C/c2cn(Cc3ccccc3)c3ccccc23)cc1`, 81.5 µM; that for `O=C(c1ccccc1)n1cc(/C=N/c2ccc(F)cc2)c2ccccc21`, > 100 µM. In turn, `Cc1ccc(/N=C/c2c[nH]c3ccccc23)cc1` came in with an IC50 of 62.3 µM. The result for `FC(F)(F)c1ccc(/N=C/c2c[nH]c3ccccc23)cc1` reads 78.2 µM.
